Experimental data taken from patent US5990170A, “Therapeutic use of mono and bicarboxylic acid amides active at the peripheral cannabinoid receptor” (Lifegroup S.p.A., priority 1994, dated 1999).
“Also recorded” adds a separate entry of the source. Read-outs that look alike come from different tables or passages of the source.

What was measured:
[1] = tested on: RBL-2H3 cells; assay: Inhibition of 3H-serotonin release induced by ADNP/DNP-HSA immunogenic stimulation in RBL-2H3 cells; type: cell-based, rat; details: for inhibition at 12.5 µM: RBL-2H3, read-out: 3H-serotonin net release inhibition (%), 12.5 μM; for inhibition at 10 µM: RBL-2H3, 10 μM, 1% DMSO and 0.1% ethanol (Table 4), read-out: 3H-serotonin net release inhibition (%)
[2] = physchem; details: chloroform, organic solvent or mixture
[3] = biological target: T1, CB2 receptor (RBL-2H3 cell membranes) (Rattus norvegicus, UniProt Q9QZN9); assay: Competitive displacement of 3H-WIN 55,212-2 binding to RBL-2H3 cell membranes; details: competitor 10 μM
T1 construct: Preparation of Plasmatic Membranes of RBL-2H3 Cells; endogenous in cells; host or cells: RBL-2H3 (rat basophilic leukemia) cell membranes
T1 sequence (Q9QZN9 1-360): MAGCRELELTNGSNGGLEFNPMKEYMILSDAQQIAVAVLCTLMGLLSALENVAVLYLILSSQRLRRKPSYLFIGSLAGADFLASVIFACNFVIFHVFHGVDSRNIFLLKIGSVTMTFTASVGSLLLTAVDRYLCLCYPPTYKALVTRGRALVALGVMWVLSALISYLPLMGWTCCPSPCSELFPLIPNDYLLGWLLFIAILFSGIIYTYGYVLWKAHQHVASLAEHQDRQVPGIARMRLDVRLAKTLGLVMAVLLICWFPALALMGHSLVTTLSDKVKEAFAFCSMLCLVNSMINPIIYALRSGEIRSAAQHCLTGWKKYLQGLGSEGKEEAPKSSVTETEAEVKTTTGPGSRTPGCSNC

[4] = biological target: T1, CB2 receptor (RBL-2H3 cell membranes); assay: as above; details: for inhibition at 10 µM: read-out: % Displacement
Experimental: (§1) RBL-2H3 cells (100×10^6), frozen at -80° C., were thawed with 4 ml of Tris-HCl buffer solution 50 mM (pH 7.4), added with 0.25% w/v of Tripsin inhibitor, TYPE II-S: SOY BEAN® (distributed by Sigma). The cells were resuspended in the buffer and homogenized. The homogenate was centrifuged at 1500×g at 4° C. for 10 min. The supernatant obtained was collected and the precipitate was resuspended in 4 ml of the previous buffer. The resuspended precipitate was homogenized and centrifuged again at 1500×g at 4° C. for 5-10 min. The resulting supernatant was combined to the supernatant previously obtained and centrifuged at 5000×g for 10 min. After centrifugation, the supernatant was collected and further centrifuged at 40,000×g at 4° C. for 30 min. The resulting precipitate was resuspended in 0.5 ml of the buffer solution described above, with addition of 1% Bovine Serum Albumin fatty acid free. The obtained suspension was centrifuged at 40,000×g at 4° C. for 30 min. The resulting precipitate was collected and resuspended in buffer solution containing 50 mM Tris HCl, 1 mM Tris-EDTA, 3 mM MgCl2, pH 7.4, in order to obtain a proteic concentration of 1 μg/μl approx. This preparation may be used fresh, or frozen at -80° C. and utilized within few days.
Non-radioactive WIN 55,212-2 (1 μM) was used to inhibit specific binding. […] The competitors were added to the binding mixture prior to the labelled ligand. In both cases, for an evaluation of the reference specific binding, ethanol and DMSO were added at the same final concentration to the total binding and to the aspecific one, also in the absence of competitors.
WIN 55,212-2 was used at a concentration of 3 μM, whereas the other compounds were used at a concentration of 10 μM.
Incubation was carried out in the presence of 1% DMSO. The values of Inhibitory Concentration 50 (IC50) are expressed as means ± SEM, after the number of experiments reported hereinbelow.

[5] = tested on: CB1 central receptor; details: result in words; cited from earlier work
[6] = biological target: T1, CB2 receptor (RBL-2H3 cell membranes); assay: Saturation curve of labelled receptor agonist 3H-WIN 55,212-2 on RBL-2H3 cell membranes; type: binding; details: 0.5 to 20 nM 3H-WIN 55,212-2; 30 μg membrane proteins; 30° C., 60 min
Experimental: as §1

[7] = tested on: activated macrophages; details: result in words; Fischer-Stenger et al., 1993; cited from earlier work
[8] = Solubility in water and organic solvents; details: result in words
[9] = tested on: CB1 central receptor; details: result in words; Devane et al., 1992; cited from earlier work

CCCCCCCCCCCCCCCCCC(=O)NCCO [Example 23, N-(2-hydroxyethyl)-stearoylamide]
inhibition at 60 µM ([1]; Rattus norvegicus, RBL-2H3, read-out: 3H-serotonin release inhibition %, 0.2% DMSO, 60 μM (Table 8)): 60% | inhibition at 100 µM ([1]; Rattus norvegicus, RBL-2H3, read-out: 3H-serotonin release inhibition %, 1% DMSO, 100 μM (Table 8)): 91% | EC50 ([1]; Rattus norvegicus, RBL-2H3, read-out: EC50, concentration inhibiting by 50% the net release of 3H serotonin, 1% DMSO, 15 minutes release period (Table 9)): 11 µM | IC50 ([1]; read-out: ED50, inhibition of 3H-serotonin release, + anandamide (12.5 μM) (Table 5), 15 min): 10.1 µM | IC50 ([1]; read-out: ED50, inhibition of 3H-serotonin release, - anandamide (Table 5), 15 min): 2.4 µM | solubility [2]: > 5000 µg/mL

CCCCC/C=C\C/C=C\C/C=C\C/C=C\CCCC(=O)NCCO [anandamide, arachidonylethanolamide, reference compound]
inhibition at 12.5 µM ([1]; Rattus norvegicus, + WIN 55,212-2 (30 μm) (Table 6)): 15% | inhibition at 12.5 µM ([1]; Rattus norvegicus, - WIN (Table 6)): 7% | 3H-serotonin net release (%) ([1]; concentration not given, 0.1% DMSO and 0.1% ethanol (Table 3), 15 min): 100% | antagonism of the protective effects of cannabinoids ([1]; result in words): competitive antagonism on the peripheral receptor | functional effect following receptor activation (serotonin release) ([1]; result in words): unable to affect serotonin release; also recorded: is not able to induce biological effects | Specific binding ([3]; 0.1% ethanol): 99 | inhibition at 10 µM [4]: 95% | binding to the peripheral receptor ([4]; result in words): able to bind to the receptor and to compete; also recorded: having binding affinity for the peripheral receptor | functional activation of CB1 central receptor [5]: can functionally activate CB1 central receptor

Cc1c(C(=O)c2cccc3ccccc23)c2cccc3c2n1C(CN1CCOCC1)CO3 (stereo not drawn) [3H-WIN 55,212-2]
Bmax [6]: 100 to 250 pM

CCCCCc1cc(O)c2c(c1)OC(C)(C)[C@@H]1CCC(C)=C[C@@H]21 [Δ9-THC, Δ9-tetrahydrocannabinol, reference compound]
activity at 25 µM ([1]; Rattus norvegicus, RBL-2H3, 0.25 h, read-out: 3H-serotonin net release (%)): 27% | IC50 ([1]; Rattus norvegicus, RBL-2H3, 0.25 h, read-out: ED50): 5 µM | inhibition at 25 µM ([1]; Rattus norvegicus, RBL-2H3, read-out: 3H-serotonin net release inhibition (%), 25 μM, - anandamide (Table 4)): 73% | functional effect following receptor activation (serotonin release) ([1]; result in words): able to inhibit, in a concentration-dependent way, RBL cells immunogenic activation | effect on cytolytic activity of activated macrophages [7]: decreases the cytolytic activity of activated macrophages

CCCCCCCCCCCCCCCC(=O)NCCO [Example 25, N-palmitoylethanolamide]
inhibition at 10 µM ([1]; Rattus norvegicus, + anandamide (12.5 μM)): 0% | inhibition at 10 µM ([1]; Rattus norvegicus, - anandamide): 100% | activity at 10 µM ([1]; Rattus norvegicus, RBL-2H3, 0.25 h, 10 μM (minimum effective concentration), 1% DMSO and 0.1% ethanol (Table 3), read-out: 3H-serotonin net release (%)): 0% | IC50 ([1]; Rattus norvegicus, RBL-2H3, 0.25 h, 1% DMSO and 0.1% ethanol (Table 3), read-out: ED50 (the source's name)): 2.6 µM | functional effect following receptor activation (serotonin release) ([1]; result in words): can inhibit the effects induced by mast cell activation and exert an effect that is higher than or comparable to the one of cannabinoids | functional effect following receptor activation (serotonin release) ([1]; result in words, listed as palmitoylethanolamide): capable of functionally activating the peripheral receptor | solubility in organic solvents [8]: in hot MetOH, CHCl3, DMSO | solubility in water [8]: insoluble | Specific binding ([3]; 0.1% DMSO): 1103 | IC50 [4]: 0.001 ± 0.00055 µM | inhibition at 10 µM [4]: 23% | binding to the central receptor [9]: not able to bind to the central receptor
